Here are results for three compounds from patent US4617308A, “7-substituted amino-1-aryl-6,8-difluoro-1,4-dihydro-4-oxo-3-quinolinecarboxylic acids and derivatives thereof as antibacterial agents” (Warner-Lambert Company, priority 1985, dated 1986).

The structures appear in SMILES notation. Values after ≈ are worked out from the molar mass of the structure shown.

Assay in all cases: In vitro antibacterial activity, microtitration dilution method
What all share (format): cell-based

Experiment [1] concerns Streptococcus pneumoniae SV-1. Conditions: SV1, read-out: Minimal Inhibitory Concentration MIC. The text has this:
(§1) The compounds of the invention display anti-bacterial activity when tested by the microtitration dilution method as described in Heifetz, et al, Antimicr. Agents & Chemoth., 6, 124 (1974), which is incorporated herein by reference and illustrated in the following table.

For experiment [2], the system named is Klebsiella pneumoniae MGH-2. Conditions: MGH2, read-out: Minimal Inhibitory Concentration MIC.
Excerpt: as §1

In experiment [3] the test system is Enterobacter cloacae MA 2646. To be noted: MA2646, read-out: Minimal Inhibitory Concentration MIC.
Excerpt: as §1

The test system of experiment [4] is Staphylococcus aureus H 228. Conditions: H228, read-out: Minimal Inhibitory Concentration MIC.
Excerpt: as §1

Experiment [5] has as its system Escherichia coli Vogel. To be noted: read-out: Minimal Inhibitory Concentration MIC.
Excerpt: as §1

In experiment [6] the test system is Proteus rettgeri M 1771. To be noted: Providencia rettgeri, M1771, read-out: Minimal Inhibitory Concentration MIC.
Excerpt: as §1

The subject of experiment [7] is Pseudomonas aeruginosa UI-18. Conditions: UI18, read-out: Minimal Inhibitory Concentration MIC.
Excerpt: as §1

The test system of experiment [8] is Streptococcus pyogenes C-203. Conditions: C203, read-out: Minimal Inhibitory Concentration MIC.
Excerpt: as §1

Experiment [9] relates to Staphylococcus aureus UC-76. Conditions: UC76, read-out: Minimal Inhibitory Concentration MIC.
Excerpt: as §1

In experiment [10] the test system is Streptococcus faecalis MGH-2. Conditions: Enterococcus faecalis, MGH2, read-out: Minimal Inhibitory Concentration MIC.
Excerpt: as §1

For `CCNCC1CCN(c2c(F)cc3c(=O)c(C(=O)O)cn(-c4ccc(F)cc4)c3c2F)C1` (stereo not drawn) [Ex. 1], the MIC in [1] was determined as 0.4 µg/mL (≈ 0.898 µM); in experiment [2], 1.6 µg/mL (≈ 3.59 µM); in experiment [3] it was 0.8 µg/mL (≈ 1.8 µM); in [4], 0.1 µg/mL (≈ 0.224 µM); in experiment [5] it was 0.8 µg/mL (≈ 1.8 µM); in experiment [6], 1.6 µg/mL (≈ 3.59 µM). The MIC in experiment [7] amounted to 1.6 µg/mL (≈ 3.59 µM); in experiment [8] it was 0.4 µg/mL (≈ 0.898 µM); in experiment [9] it was 0.2 µg/mL (≈ 0.449 µM); in [10], 0.2 µg/mL (≈ 0.449 µM).
Consider `CCNCC1CCN(c2c(F)cc3c(=O)c(C(=O)O)cn(-c4ccccc4)c3c2F)C1` (stereo not drawn) [Ex. 3, 7-[3-[(Ethylamino)methyl]-1-pyrrolidinyl]-6,8-difluoro-1,4-dihydro-4-oxo-1-phenyl-3-quinolinecarboxylic acid], for which the MIC in experiment [1] was 1.6 µg/mL (≈ 3.74 µM); in [2] it was 1.6 µg/mL (≈ 3.74 µM); in experiment [3] it was 1.6 µg/mL (≈ 3.74 µM); in experiment [4], 0.8 µg/mL (≈ 1.87 µM); in [5] it was 1.6 µg/mL (≈ 3.74 µM); in experiment [6], 6.3 µg/mL (≈ 14.7 µM). Besides, the MIC in experiment [7] came out at 6.3 µg/mL (≈ 14.7 µM); in experiment [8], 1.6 µg/mL (≈ 3.74 µM); in experiment [9], 0.2 µg/mL (≈ 0.468 µM); in experiment [10], 0.8 µg/mL (≈ 1.87 µM).
As to `NCC1CCN(c2c(F)cc3c(=O)c(C(=O)O)cn(-c4ccccc4)c3c2F)C1` (stereo not drawn) [Ex. 4, 7-[3-(Aminomethyl)-1-pyrrolidinyl]-6,8-difluoro-1,4-dihydro-4-oxo-1-phenyl-3-quinoline carboxylic acid], the MIC in experiment [1] worked out at 0.2 µg/mL (≈ 0.501 µM); in [2], 0.8 µg/mL (≈ 2 µM); in experiment [3], 0.4 µg/mL (≈ 1 µM); in [4] it was 0.2 µg/mL (≈ 0.501 µM); in experiment [5] it was 0.2 µg/mL (≈ 0.501 µM); in experiment [6], 1.6 µg/mL (≈ 4.01 µM). Also, the MIC worked out at 1.6 µg/mL (≈ 4.01 µM) in [7], 0.2 µg/mL (≈ 0.501 µM) in experiment [8], 0.1 µg/mL (≈ 0.25 µM) in [9] and 0.2 µg/mL (≈ 0.501 µM) in experiment [10].
